The nature of series [1]: method code SF-HPLC, from DOI: 10.1016/0006-2952(94)90540-1, PMID: 8185676.
The nature of series [2]: method code SF-RC, from DOI: 10.1016/j.apradiso.2010.08.010, PMID: 20843697. The following applies: pH 7.4.
The nature of series [3]: method code SF-AS, from DOI: 10.1021/acs.inorgchem.5b01238, PMID: 26280387.
Series [4] can be described thus: method code SF-AS, from Lippold, B.; Lichey, J. (1984). Transport of drugs through lipophilic polymer membranes. II. Influence of the partition and diffusion coefficients. Acta pharmaceutica technologica, 30(2)140-154.
The nature of series [5]: method code SF-HPLC, from DOI: 10.1016/j.ejps.2015.05.008, PMID: 25968358. The following applies: pH 7.4.
Series [6] in a line: method code SF-AS, from DOI: 10.1007/bf02273190.
Series [7] can be described thus: method code SF-HPLC, from DOI: 10.1248/cpb.37.2861, PMID: 2611948. The following applies: pH 4.0.
Series [8] can be described thus: method code SF, from DOI: 10.1038/bjc.1982.190, PMID: 7150475.
The nature of series [9]: method code SF-HPLC, from Yu, G.; Xu, X. (1993). Determination of the 1-octanol/water partition coefficient of nitro-PAHs. Huanjing Huaxue, 12(4)299-303.
Series [10] is described as follows: method code SF, from DOI: 10.1023/a:1012119527214, PMID: 9453056. The following applies: pH 12.5.
A short description of series [11]: method code SF-AS, from DOI: 10.1016/s0003-2670(01)80868-0.
Series [12] in a line: method code SF-HPLC, from DOI: 10.1016/0378-5173(90)90184-6. Conditions: pH 4.0.
Experiment in series [13]: not given
This is another data set of the same source.

Series [14] is described as follows: method code SF, from DOI: 10.1016/j.bcp.2004.09.021, PMID: 15627482. Conditions: pH 7.0.
Experiment in series [15]: not given
This is another data set of the same source.

A short description of series [16]: method code SF-RC, from DOI: 10.1002/syn.20147. Conditions: pH 7.4.
Experiment in series [17]: not given
The source holds these as a separate data set.

The nature of series [18]: method code SF-AS, from DOI: 10.1016/0300-483x(85)90004-6, PMID: 4024126.
Series [19] is described as follows: method code SF-AS, from DOI: 10.1248/cpb.32.4084, PMID: 6099228. Conditions: pH 7.4.
Series [20] can be described thus: method code SF-HPLC, from DOI: 10.1006/pest.1998.2384.
A short description of series [21]: method code SF-AS, from DOI: 10.1016/0006-2952(81)90362-2, PMID: 7271838. Conditions: pH 7.5.
Series [22] is described as follows: method code SF-AS, from DOI: 10.1016/0223-5234(96)88239-0. The following applies: pH 2.0.
Experiment in series [23]: not given
The source holds these as a separate data set.

Series [24] can be described thus: method code SF-AS, from DOI: 10.1211/0022357011776199, PMID: 11428660. Conditions: pH 7.4.
Experiment in series [25]: not given
This is another data set of the same source.

Experiment in series [26]: not given
The source holds these as a separate data set.

Series [27] can be described thus: method code SF-AS, from DOI: 10.1021/jm00051a006, PMID: 7996541.
Series [28] can be described thus: method code SF-HPLC, from DOI: 10.1016/0168-3659(92)90067-2.
A short description of series [29]: method code SF-GLC, from DOI: 10.1021/jm00366a019, PMID: 6644745.
The nature of series [30]: method code SF-RC, from DOI: 10.1016/s0969-8051(00)00080-9, PMID: 10832080. The following applies: pH 13.0.

This passage reports logP and logD results from the SangsterLogP compilation.

The structures appear in SMILES notation.

On to `CC[C@@]1(Br)C(=O)NC(=O)N([C@H]2C[C@H](O)[C@@H](CO)O2)[C@H]1OC`, for which, in series [1], the logP stood at 0.4.
As to `O=C(NCCN1C(=O)C=CC1=O)c1cncc(I)c1`, in series [2], the logD amounted to 0.63.
In turn, `CCSC(=S)C=C(O)c1ccccc1` registered a logP in [3] of 1.93.
In series [4], `CCCCNC(=O)NS(=O)(=O)c1ccc(N)cc1` yielded a logP of 1.18.
Compound `CCCCC(=O)c1ccccc1` came in with a logD in series [5] of 3.03.
Same read-out and setting: the same measure for `c1ccc2c(c1)Nc1ccccc1S2`: 3.97.
Regarding `CCC(=O)N(C)c1ccc(S(=O)(=O)N(C)C)cc1`, in series [6], the logP is 0.71.
On to `COP(=O)(OC)O/C(C)=C/C(=O)OC(C)c1ccccc1` (configuration not stated), for which the logP worked out at 3.
`Cc1ccc(Cn2cc(F)c(=O)[nH]c2=O)cc1` showed a logD in series [7] of 1.5.
In turn, `O=[N+]([O-])c1nccn1CC(O)CN1CCCCC1` (configuration not stated) yielded a logP in series [8] of 0.93.
Regarding `O=[N+]([O-])c1ccc2c(c1)Cc1ccccc1-2`, the logP in series [9] is 3.99.
Take `ClC1=C(Cl)C2(Cl)C3C4C=CC(C4)C3C1(Cl)C2(Cl)Cl` (configuration not stated): the logP turned out to be 5.67.
As for `Cc1cccc(C)c1NC(=O)CN(C)C`, the logD in [10] came out at 1.23.
`CC[C@]1(Cl)C(=O)NC(=O)N([C@H]2C[C@H](O)[C@@H](CO)O2)[C@@H]1OC` had a logP in series [1] of 0.4.
As for `CCCCCC(=O)CC(=O)CCCCC`, the logP in series [11] is 4.88.
The compound `CCCCCCCCNC(=O)n1cc(F)c(=O)[nH]c1=O` had a logD in [12] of 3.9.
`CCSc1nc(NC(C)C)nc(NC(C)C)n1` came in with a logP in [13] of 3.81.
Regarding `CCCCC1(C(=O)OCCC)CCC=[N+]1[O-]` (configuration not stated), in [14], the logD came out at 1.16.
For the compound `Clc1cc(Cl)c2oc3c(Cl)c(Cl)c(Cl)c(Cl)c3c2c1Cl`, the logP in series [15] stood at 7.93.
`CN(C)c1nc(=O)n(C2CCCCC2)c(=O)n1C`: the logP in series [13] amounted to 1.85.
With `N#Cc1cc(F)cc(C#Cc2ccccn2)c1`, in [16], the log distribution coefficient (logD) was determined as 2.8.
`CN(C)Cc1ccc(CSCCNc2[nH]ccc2[N+](=O)[O-])o1` had a logP in [17] of 1.64.
`Cc1nc(C#Cc2cc(F)cc(C#N)c2)cs1` had a logD in [16] of 3.2.
As for `CC(=O)c1ccc(N2C(=O)CCC2=O)cc1`, the logP in series [18] is 1.37.
The compound `O=C(CN1CCCCC1)Nc1ccc(Cl)cc1` gave a logD in [19] of 3.26.
For the compound `CCCCC(=O)CC(=O)CCCC`, in series [11], the logP was determined as 3.56.
For `COc1ccc(Cn2cc(F)c(=O)[nH]c2=O)cc1`, the logD in [7] stood at 1.04.
The compound `CCN(CC)CC(=O)NCC(=O)Nc1c(C)cccc1C` gave a logD in series [10] of 2.2.
Regarding `CCCCCCNC(=O)n1cc(F)c(=O)[nH]c1=O`, the logD in series [12] came to 2.63.
In series [20], `C=CCN1CCN(Cc2ccc(Cl)nc2)C1=N[N+](=O)[O-]` showed a logP of 0.51.
`CCCCOC(=O)c1ccc(O)cc1` showed a logD in [21] of 3.32.
`COc1ccc(C(=O)c2ncc(C(=O)O)n2C)cc1` returned a logD in series [22] of 2.01.
Compound `CN(C)CCSCc1ccccc1` yielded a logP in series [23] of 1.81.
Consider `CC(C1=C(CCN(C)C)Cc2ccccc21)c1ccccn1` (configuration not stated), for which the logP in series [4] worked out at 2.7.
The compound `CCCCOC(=O)c1ccc(N)cc1` registered a logD in [21] of 3.05.
As to `CCCCC1(C(=O)OC(C)CC)CCC=[N+]1[O-]` (configuration not stated), the logD in series [14] is 1.59.
In the case of `CCN(CC)CC(=O)OCCn1c([N+](=O)[O-])cnc1C`, the logD in [24] came out at 0.03.
As to `Brc1ccc(-c2ccccc2)c(Br)c1`, the logP in series [25] is 5.53.
For `COC(C)(C(=O)O)c1ccc2ccccc2c1` (configuration not stated), the logP in series [26] came to 3.18.
The compound `O=[N+]([O-])c1ccc(-c2ccc([N+](=O)[O-])cc2)cc1` came in with a logP in series [9] of 3.2.
In turn, `Brc1cccc(-c2cc(Br)ccc2Br)c1` displayed a logP in [25] of 6.2.
In [23], `CN1C[C@@H](N)C[C@@H]2c3cccc4[nH]cc(c34)C[C@H]21` gave a logP of 0.4.
In series [27], `CO[C@H]1N([C@H]2C[C@H](N=[N+]=[N-])[C@@H](CO)O2)C(=O)NC(=O)[C@@]1(C)Cl` had a logP of 0.52.
Compound `COc1ccc(C[C@H](NC(C)=O)C(=O)N[C@H](Cc2ccc(OC)cc2)C(N)=O)cc1` had a logP in series [28] of 1.19.
Consider `O=C(NCCN1C(=O)C=CC1=O)c1cccc(I)c1`, for which, in series [2], the logD stood at 1.03.
For `CCN/C(=N/C#N)NCCSCc1ncccc1Br`, the logP in series [17] came out at 1.98.
As to `Cc1ncc([N+](=O)[O-])n1CCOC(=O)CN1CCOCC1`, the logD in series [24] was found to be 0.27.
As to `Cc1ccc(C(=O)c2ncc(C(=O)O)n2C)cc1`, the logD in series [22] worked out at 2.25.
As for `O=C(O)c1ccc2ccccc2c1`, in [26], the logP was 3.1.
In series [8] (pH 7.4), `CCCCOCC(O)Cn1ccnc1[N+](=O)[O-]` (configuration not stated) came in with a log distribution coefficient (logD) of 1.11.
For the compound `N[C@@H]1C[C@@H]2C[C@H]1c1ccc(C(F)(F)F)cc12`, the logD in [29] (pH 12.0) is 3.21.
Consider `CN1C2CCC1C(c1ccccn1)C2` (configuration not stated), for which the logD in series [30] is 1.34.
As for `CC(=O)NC(Cc1ccc(O)cc1)C(N)=O` (configuration not stated), the logP in series [28] was -0.7.
In series [20], `C#CCN1CCN(Cc2ccc(Cl)nc2)C1=N[N+](=O)[O-]` registered a logP of 0.29.
Turning to `CC(C)(C)c1ccc(N2C(=O)CCC2=O)cc1`, the logP in [18] turned out to be 0.67.
In [6], `CC(=O)N(C)c1ccc(S(=O)(=O)N(C)C)cc1` returned a logP of 0.23.
In series [30], `CN1C2CCC1C(c1cccnc1)C2` (configuration not stated) returned a logD of 1.65.
Turning to `Clc1cc2c(oc3c(Cl)cc(Cl)c(Cl)c32)c(Cl)c1Cl`, the logP in series [15] was determined as 7.51.
Compound `CNC1CC2c3ccccc3C1C2O` (configuration not stated) had a logD in [29] (pH 13.0) of 0.91.
In the case of `CCSC(=S)C=C(O)c1ccc(O)cc1`, the logP in [3] was determined as 1.97.
`CCc1ccc(NC(=O)CN2CCCCC2)cc1` registered a logD in [19] of 3.52.
In series [27], `CO[C@@H]1N([C@H]2C[C@H](N=[N+]=[N-])[C@@H](CO)O2)C(=O)NC(=O)[C@@]1(C)Br` had a logP of 1.22.
